Measurements from PMC12518037, “Design, Synthesis, Biological Evaluation, and In Silico Study of Tetrahydropyridines as Prospective Monoamine Oxidase Inhibitors” (ChemistryOpen, 2025).

How the values were obtained:
[1] = biological target: T1, MAO‐A (Homo sapiens, UniProt P21397); experiment: MAO-A inhibition assay (Amplex red fluorescence, tyramine substrate); format: biochemical; details: percent inhibition observed at 100 μM
T1 sequence (P21397 1-527): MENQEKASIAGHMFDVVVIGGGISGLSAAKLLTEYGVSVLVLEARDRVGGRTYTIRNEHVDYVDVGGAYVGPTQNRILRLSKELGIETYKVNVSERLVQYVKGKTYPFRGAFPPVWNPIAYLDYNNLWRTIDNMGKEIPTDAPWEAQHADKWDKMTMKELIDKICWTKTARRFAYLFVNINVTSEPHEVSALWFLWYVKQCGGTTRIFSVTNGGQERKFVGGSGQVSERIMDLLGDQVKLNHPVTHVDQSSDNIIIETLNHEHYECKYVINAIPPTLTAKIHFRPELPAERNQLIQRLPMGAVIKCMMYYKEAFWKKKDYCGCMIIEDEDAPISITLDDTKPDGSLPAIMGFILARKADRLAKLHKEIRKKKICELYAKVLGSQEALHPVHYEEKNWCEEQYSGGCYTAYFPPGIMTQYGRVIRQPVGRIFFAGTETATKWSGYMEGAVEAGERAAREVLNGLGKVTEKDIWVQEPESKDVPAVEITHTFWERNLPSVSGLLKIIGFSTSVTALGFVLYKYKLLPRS
Method: (§1) The range of compounds used in the study started at 1 mM for the initial screening to determine the percentage of inhibition. […] For 10 minutes, the reaction mixture was incubated at 37 °C. Tyramine, a substrate with a final concentration of 0.30 mM, was added to each well after 15 minutes, followed by 10 μL of Amplex red, a fluorogenic substrate. The FLUOstar Omega fluorescence plate reader (BMG Labtech GmbH, Ortenberg, Germany) was used to detect the change in fluorescence.

[2] = biological target: T2, MAO‐B (Homo sapiens, UniProt P27338); experiment: MAO-B inhibition assay (Amplex red fluorescence, tyramine substrate); format: biochemical; details: percent inhibition observed at 100 μM
T2 sequence (P27338 2-520): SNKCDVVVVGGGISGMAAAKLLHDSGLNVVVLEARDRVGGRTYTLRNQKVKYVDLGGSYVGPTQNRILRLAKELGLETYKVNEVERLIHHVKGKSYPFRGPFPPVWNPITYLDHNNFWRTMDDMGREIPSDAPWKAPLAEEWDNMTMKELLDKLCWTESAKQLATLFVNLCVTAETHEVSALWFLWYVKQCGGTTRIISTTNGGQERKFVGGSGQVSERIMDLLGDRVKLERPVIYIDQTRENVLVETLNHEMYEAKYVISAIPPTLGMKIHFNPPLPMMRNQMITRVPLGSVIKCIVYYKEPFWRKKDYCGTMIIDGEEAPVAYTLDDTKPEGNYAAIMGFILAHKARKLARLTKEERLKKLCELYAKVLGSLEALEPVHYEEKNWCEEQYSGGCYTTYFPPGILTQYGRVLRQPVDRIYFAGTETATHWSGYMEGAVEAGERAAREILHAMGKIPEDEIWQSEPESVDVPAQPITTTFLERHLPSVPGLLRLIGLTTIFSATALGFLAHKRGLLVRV
Method: as §1

In the case of `CCOC(=O)C1=C(Nc2ccc(Cl)cc2)CC(c2ccccc2)N(c2ccc(Cl)cc2)C1c1ccccc1` (centres unmarked) [4 b, Ethyl 1‐(4‐chlorophenyl)‐4‐(4‐chlorophenylamino)‐2,6‐diphenyl‐1,2,5,6‐tetrahydropyridine‐3‐carboxylate], the inhibition at 100 µM [1] is reported as 40%.
In the case of `CCOC(=O)C1=C(Nc2ccc(Br)cc2)CC(c2ccc(Cl)cc2)N(c2ccc(Br)cc2)C1c1ccc(Cl)cc1` (centres unmarked) [4 h, Ethyl 1‐(4‐bromophenyl)‐4‐(4‐bromophenylamino)‐2,6‐bis(4‐chlorophenyl)‐1,2,5,6‐tetrahydropyridine‐3‐carboxylate], the inhibition at 100 µM [1] is reported as under 50%.
`CCOC(=O)C1=C(Nc2ccc(OC)cc2)CC(c2ccc(Cl)cc2)N(c2ccc(OC)cc2)C1c1ccc(Cl)cc1` (centres unmarked) [4 i, Ethyl 2,6‐bis(4‐chlorophenyl)‐1‐(4‐methoxyphenyl)‐4‐(4‐methoxyphenylamino)‐1,2,5,6‐tetrahydropyridine‐3‐carboxylate] showed an inhibition at 100 µM [2] of under 50% and an inhibition at 100 µM [1] of under 50%.
Compound `CCOC(=O)C1=C(Nc2ccc(C)cc2)CC(c2ccc(Cl)cc2)N(c2ccc(C)cc2)C1c1ccc(Cl)cc1` (centres unmarked) [4 j, Ethyl 4‐(p–toluidino)‐2,6‐bis(4‐chlorophenyl)‐1‐p–tolyl‐1,2,5,6‐tetrahydropyridine‐3‐carboxylate] has an inhibition at 100 µM [2] of under 50% and an inhibition at 100 µM [1] of under 50%.
`CCOC(=O)C1=C(Nc2ccc(Cl)cc2)CC(c2ccc([N+](=O)[O-])cc2)N(c2ccc(Cl)cc2)C1c1ccc([N+](=O)[O-])cc1` (centres unmarked) [4 l, Ethyl 1‐(4‐chlorophenyl)‐4‐(4‐chlorophenylamino)‐2,6‐bis(4‐nitrophenyl)‐1,2,5,6‐tetrahydropyridine‐3‐carboxylate] gave an inhibition at 100 µM [2] of 23%.
For `CCOC(=O)C1=C(Nc2ccc(Br)cc2)CC(c2ccc([N+](=O)[O-])cc2)N(c2ccc(Br)cc2)C1c1ccc([N+](=O)[O-])cc1` (centres unmarked) [4 m, Ethyl 1‐(4‐bromophenyl)‐4‐(4‐bromophenylamino)‐2,6‐bis(4‐nitrophenyl)‐1,2,5,6‐tetrahydropyridine‐3‐carboxylate], the inhibition at 100 µM [2] was 46%.
